Calls of active or inactive are those of the source. No cut-off for these calls is given here.
What was measured:
HCT-116 [1] = assay: Induction of histone H3 hyperacetylation in human HCT116 cells; format: functional, cell-based
Mus musculus [2] = assay: Induction of histone H3 hyperacetylation in human HCT116 cells xenografted athymic mouse; format: functional, organism-based; conditions: HCT-116
COLO 205 = assay: Antiproliferative activity against human COLO205 cells after 96 hrs by celltiter assay; format: functional, cell-based; conditions: COLO 205, 96 h
Histone deacetylase 1 = Histone deacetylase 1 (Homo sapiens, UniProt Q13547)
Sequence of Histone deacetylase 1 (Q13547 whole entry): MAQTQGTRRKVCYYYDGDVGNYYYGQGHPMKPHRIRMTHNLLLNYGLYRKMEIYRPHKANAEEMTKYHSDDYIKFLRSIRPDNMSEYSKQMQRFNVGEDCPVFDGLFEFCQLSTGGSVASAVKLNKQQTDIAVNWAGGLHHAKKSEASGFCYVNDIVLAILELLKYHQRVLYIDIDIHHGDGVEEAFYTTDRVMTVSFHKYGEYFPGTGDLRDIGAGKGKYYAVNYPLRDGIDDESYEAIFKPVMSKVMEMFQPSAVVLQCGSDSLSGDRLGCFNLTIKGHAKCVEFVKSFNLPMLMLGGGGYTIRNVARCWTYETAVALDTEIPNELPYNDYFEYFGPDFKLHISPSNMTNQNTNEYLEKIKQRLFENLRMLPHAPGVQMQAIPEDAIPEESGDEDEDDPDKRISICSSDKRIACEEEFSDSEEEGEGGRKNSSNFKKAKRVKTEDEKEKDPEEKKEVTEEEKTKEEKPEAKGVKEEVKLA
Description: Inhibition of recombinant HDAC1 by fluorimetric assay

[3] = Toxicity in ip dosed athymic mouse assessed as maximum tolerated dose; format: organism-based; conditions: in vivo
HCT-116 [4] = assay: Antitumor activity against human HCT116 cells xenografted in athymic mouse assessed as tumor growth inhibition at 75 mg/kg, ip qd for 21 days measured on day 21; format: functional; conditions: HCT-116, ip, 504 h, route intraperitoneal, read-out: TGI
[5] = mouse, microsomes
Description: (§1) Metabolic stability in mouse liver microsomes assessed as half life

in vitro [6] = conditions: human, liver microsomes
HCT-116 [7] = assay: Antiproliferative activity against human HCT116 cells after 96 hrs by celltiter assay; format: functional, cell-based; conditions: HCT-116, 96 h
A2780 = assay: Antiproliferative activity against human A2780 cells after 96 hrs by celltiter assay; format: functional, cell-based; conditions: A2780, 96 h
PC-3 = assay: Antiproliferative activity against human PC3 cells after 96 hrs by celltiter assay; format: functional, cell-based; conditions: PC-3, 96 h
in vitro [8] = conditions: mouse, liver microsomes
Description: as §1

Mus musculus [9] = assay: Toxicity in athymic mouse xenografted with human HCT116 cells at 100 mg/kg, ip qd for 21 days measured on day 12; format: organism-based, HCT-116; set-up: dose 100 mg/kg, route intraperitoneal; conditions: in vivo, 504 h
HCT-116 [10] = assay: Antitumor activity against human HCT116 cells xenografted in athymic mouse assessed as tumor growth inhibition at 100 mg/kg, ip qd for 21 days measured on day 11; format: functional; conditions: HCT-116, ip, route intraperitoneal, read-out: TGI
HCT-116 [11] = assay: Antitumor activity against human HCT116 cells xenografted in athymic mouse assessed as tumor growth inhibition at 50 mg/kg, ip qd for 21 days measured on day 21; format: functional; conditions: HCT-116, ip, 504 h, route intraperitoneal, read-out: TGI
HCT-116 [12] = assay: Antitumor activity against human HCT116 cells xenografted in athymic mouse assessed as tumor growth inhibition at 60 mg/kg, ip qd for 21 days measured on day 22; format: functional; conditions: HCT-116, ip, route intraperitoneal, read-out: TGI

With `O=C(/C=C/c1ccc2c(c1)nc(CCc1ccccc1)n2CCN1CCCC1)NO` the Activity (HCT-116 [1]) was “Active” and the Activity (Mus musculus [2]) was “Active”.

Work on `COCCCn1c(CCc2ccccc2)nc2cc(/C=C/C(=O)NO)ccc21` yielded an IC50 (COLO 205) of 2200 nM.

With `O=C(O)CCn1c(CCc2ccccc2)nc2cc(/C=C/C(=O)NO)ccc21` the IC50 (Histone deacetylase 1) was 2300 nM.

`O=C(/C=C/c1ccc2c(c1)nc(C1CCCCC1)n2CCCO)NO` gave an IC50 (COLO 205) of 31000 nM.

With `O=C(/C=C/c1ccc2c(c1)nc(CCc1ccccc1)n2CCN1CCCCC1)NO` the IC50 (COLO 205) was 90 nM, the MTD [3] was 75 mg/kg and the IC50 (Histone deacetylase 1) was 26 nM. The inhibition in vivo at 75 mg/kg (HCT-116 [4]) was 32%.

Work on `O=C(/C=C/c1ccc2c(c1)nc(CCc1ccccc1)n2CCCN1CCCC1)NO` yielded an IC50 (COLO 205) of 610 nM and an IC50 (Histone deacetylase 1) of 310 nM.

`CC(C)Cc1nc2cc(CCC(=O)NO)ccc2n1CCCO` gave an IC50 (Histone deacetylase 1) greater than 10000 nM.

In the case of `O=C(/C=C/c1ccc2c(c1)nc(-c1ccsc1)n2CCCO)NO`, the IC50 (COLO 205) is reported as 31000 nM.

Work on `Nc1ccccc1NC(=O)/C=C/c1ccc2c(c1)nc(CCc1ccccc1)n2Cc1ccccn1` yielded an IC50 (COLO 205) of 5100 nM and an IC50 (Histone deacetylase 1) greater than 100000 nM.

In the case of `O=C(/C=C/c1ccc2c(c1)nc(CCc1ccccc1)n2CCCO)NO`, the IC50 (COLO 205) is reported as 3200 nM.

For `O=C(/C=C/c1ccc2c(c1)nc(CCc1ccccc1)n2Cc1ccccc1)NO`, the IC50 (COLO 205) was 1600 nM and the IC50 (Histone deacetylase 1) was 410 nM.

For `O=C(/C=C/c1ccc2c(c1)nc(COCc1ccccc1)n2CCCO)NO`, the IC50 (COLO 205) was 4100 nM.

Work on `CN(C)CC(C)(C)Cn1c(CCc2ccccc2)nc2cc(/C=C/C(=O)NO)ccc21.Cl.Cl` yielded a t1/2 [5] of 1 min, a half-life (in vitro [6]) of 12 min and an IC50 (HCT-116 [7]) of 160 nM. The IC50 (A2780) was 110 nM and the IC50 (PC-3) was 180 nM.

In the case of `O=C(CCCCCCC(=O)Nc1ccccc1)NO` [VORINOSTAT], the MTD [3] is reported as 200 mg/kg.

`O=C(/C=C/c1ccc2c(c1)nc(CCc1ccccc1)n2CCCN1CCCC1=O)NO` gave an IC50 (COLO 205) of 11000 nM.

For `CCN(CC)CCn1c(CCc2ccccc2)nc2cc(/C=C/C(=O)NO)ccc21.Cl.Cl`, the half-life (in vitro [6]) was 16 min, the IC50 (HCT-116 [7]) was 240 nM and the IC50 (A2780) was 100 nM. For the same molecule, the half-life (in vitro [8]) was 2.8 min and the IC50 (PC-3) was 200 nM.

`CN(C)CCCn1c(CCc2ccccc2)nc2cc(/C=C/C(=O)NO)ccc21` gave an IC50 (COLO 205) of 2000 nM and an IC50 (Histone deacetylase 1) of 190 nM.

Molecule `O=C(/C=C/c1ccc2nc(CCc3ccccc3)[nH]c2c1)NO` has an IC50 (COLO 205) of 4400 nM and an IC50 (Histone deacetylase 1) of 170 nM.

Molecule `CCn1c(CCc2ccccc2)nc2cc(/C=C/C(=O)NO)ccc21` has an IC50 (COLO 205) of 1500 nM.

For `O=C(/C=C/c1ccc2nc(CCc3ccccc3)n(Cc3ccccc3)c2c1)NO`, the IC50 (COLO 205) was 5400 nM and the IC50 (Histone deacetylase 1) was 1200 nM.

With `CCCn1c(CCc2ccccc2)nc2cc(/C=C/C(=O)NO)ccc21` the IC50 (COLO 205) was 2300 nM and the IC50 (Histone deacetylase 1) was 170 nM.

Work on `O=C(/C=C/c1ccc2c(c1)nc(CCc1ccccc1)n2CCc1ccccc1)NO` yielded an IC50 (COLO 205) of 8800 nM.

With `CCCCCCCCc1nc2cc(/C=C/C(=O)NO)ccc2n1CCCO` the IC50 (COLO 205) was 3700 nM.

For `CC(Cc1nc2cc(/C=C/C(=O)NO)ccc2n1CCCO)c1ccccc1` (centres undefined), the IC50 (COLO 205) was 1700 nM and the IC50 (Histone deacetylase 1) was 80 nM.

For `CN(C)CC(C)(C)Cn1c(CCc2ccccc2)nc2cc(/C=C/C(=O)NO)ccc21`, the IC50 (COLO 205) was 120 nM, the IC50 (Histone deacetylase 1) was 41 nM and the Activity (Mus musculus [9]) was “Toxic”. For the same molecule, the inhibition in vivo at 100 mg/kg (HCT-116 [10]) was 60%.

With `Cl.Cl.O=C(/C=C/c1ccc2c(c1)nc(CCc1ccccc1)n2CCN1CCCCC1)NO` the t1/2 [5] was 1.3 min, the half-life (in vitro [6]) was 10 min and the IC50 (HCT-116 [7]) was 100 nM. For the same molecule, the IC50 (A2780) was 31 nM and the IC50 (PC-3) was 120 nM.

For `COc1cc(Cn2c(CCc3ccccc3)nc3cc(/C=C/C(=O)NO)ccc32)cc(OC)c1OC`, the IC50 (COLO 205) was 320 nM and the IC50 (Histone deacetylase 1) was 47 nM.

Molecule `CC(C)Cc1nc2cc(/C=C/C(=O)NO)ccc2n1CCCO` has an IC50 (COLO 205) of 26000 nM and an IC50 (Histone deacetylase 1) of 100 nM.

For `CN(C)CCCCn1c(CCc2ccccc2)nc2cc(/C=C/C(=O)NO)ccc21`, the IC50 (COLO 205) was 1100 nM and the IC50 (Histone deacetylase 1) was 160 nM.

For `O=C(/C=C/c1ccc2c(c1)nc(CCc1ccccc1)n2CCCn1ccnc1)NO`, the IC50 (COLO 205) was greater than 100000 nM.

Work on `Cn1c(CCc2ccccc2)nc2cc(/C=C/C(=O)NO)ccc21` yielded an IC50 (COLO 205) of 1200 nM, an MTD [3] of 50 mg/kg and an inhibition in vivo at 50 mg/kg (HCT-116 [11]) of 23%.

Work on `Cn1c(CCc2ccccc2)nc2cc(C3CC3C(=O)NO)ccc21` (centres undefined) yielded an IC50 (Histone deacetylase 1) of 1300 nM.

For `Cl.Cn1c(CCc2ccccc2)nc2cc(/C=C/C(=O)NO)ccc21`, the half-life (in vitro [6]) was greater than 30 min, the IC50 (HCT-116 [7]) was 1300 nM and the IC50 (A2780) was 730 nM. For the same molecule, the half-life (in vitro [8]) was 23 min and the IC50 (PC-3) was 890 nM.

With `Cl.Cl.O=C(/C=C/c1ccc2c(c1)nc(CCc1ccccc1)n2CCN1CCCC1)NO` the half-life (in vitro [6]) was greater than 30 min, the IC50 (HCT-116 [7]) was 200 nM and the IC50 (A2780) was 190 nM. It also gave a half-life (in vitro [8]) of 2.7 min and an IC50 (PC-3) of 150 nM.

`O=C(NO)c1ccc2c(c1)nc(CCc1ccccc1)n2CCCO` showed an IC50 (COLO 205) of 26000 nM.

With `COc1cc(Cn2c(CCc3ccccc3)nc3cc(CCC(=O)NO)ccc32)cc(OC)c1OC` the IC50 (COLO 205) was 2400 nM.

Work on `O=C(/C=C/c1ccc2c(c1)nc(CCc1ccccc1)n2CCCN1CCOCC1)NO` yielded an IC50 (COLO 205) of 1900 nM.

With `O=C(/C=C/c1ccc2c(c1)nc(CCc1ccccc1)n2CCN1CCOCC1)NO` the IC50 (COLO 205) was 2800 nM.

Molecule `CCN(CC)CCn1c(CCc2ccccc2)nc2cc(/C=C/C(=O)NO)ccc21` has an IC50 (COLO 205) of 220 nM, an MTD [3] of 60 mg/kg and an inhibition in vivo at 60 mg/kg (HCT-116 [12]) of 12%. The IC50 (Histone deacetylase 1) was 52 nM.

`O=C(/C=C/c1ccc2c(c1)nc(CCc1ccccc1)n2Cc1ccccn1)NO` gave an IC50 (COLO 205) of 880 nM and an IC50 (Histone deacetylase 1) of 250 nM.
